How the values were obtained:
SUM149 [1] = assay: Cytotoxicity assay (Version 2, automated, AC50) with/without neutrophil elastase; assay type: cell-based; details: Version 2, activity concentration at −50%
Protocol: (§1) Cultivation of cells was performed according to standard procedures with the media recommended by the provider. The cells, in a total volume of 100 μL, were seeded in a 96-well plate with a white bottom (#3610). After a 24 h incubation period at 37° C. and […], the medium was exchanged by adding 90 μL fresh medium. The treatment started by adding the test compound in 10 μL of culture medium to the cells in triplicates. Concentrations ranging from 10^−5 M to 10^−13 M were chosen. Two identically treated sets of samples were prepared. One set was treated with the test compound alone, whereas to the second set the compound and 10 nM elastase was added followed by a 72 h incubation period at 37° C. and […]. The proliferation was detected using the MTT assay (ATCC). At the end of the incubation period the MTT reagent was added to all samples for 4 h. Lysis of the cells followed by addition of the detergent was done overnight. The formed dye was detected at 570 nm. The proliferation of untreated but otherwise identically handled cells was define as the 100% value.
(§2) The cytotoxicity assay (Version 2) was performed as described above. Some changes were applied as the assays were performed in an automated fashion and the IC50 values determination was changed. Here the change in metabolic activity of the cells, in percent, was calculated by normalization of the measured values to the absorbance values of medium containing wells without cells (═−100%) and the absorbance of the DMSO-treated cells (═0%). AC50 values (activity concentration at −50%) were determined by means of a 4 parameter Hill-fit using GeneData Screener software.

SUM149 [2] = assay: Cytotoxicity in vitro (MTT) in presence/absence of elastase; assay type: cell-based; details: 72 h
Protocol: as §1

786-O [3] = assay: Cytotoxicity assay (Version 2, automated, AC50) with/without neutrophil elastase; assay type: cell-based, human; details: Version 2, activity concentration at −50%
Protocol: as §1, §2

NCI H292 [4] = assay: as above; assay type: cell-based, human; details: Version 2, activity concentration at −50%
Protocol: as §1, §2

HT29 [5] = assay: as above; assay type: cell-based, human; details: Version 2, activity concentration at −50%
Protocol: as §1, §2

786-O [6] = assay: Cytotoxicity in vitro (MTT) in presence/absence of elastase; assay type: cell-based, human; details: 72 h
Protocol: as §1

NCI H292 [7] = assay: as above; assay type: cell-based, human; details: 72 h
Protocol: as §1

HT29 [8] = assay: as above; assay type: cell-based, human; details: 72 h
Protocol: as §1

[9] = SUM149, with (+) neutrophil elastase
[10] = SUM149, without (−) neutrophil elastase
[11] = SUM149, with (+) 10 nM neutrophil elastase
[12] = without (−) neutrophil elastase
[13] = NCI H292, with (+) neutrophil elastase
[14] = NCI H292, without (−) neutrophil elastase
[15] = HT29, with (+) neutrophil elastase
[16] = HT29, without (−) neutrophil elastase
[17] = with (+) 10 nM neutrophil elastase
[18] = NCI H292, with (+) 10 nM neutrophil elastase
[19] = HT29, with (+) 10 nM neutrophil elastase

| SMILES | AC50 (SUM149 [1]; [9]) | AC50 (SUM149 [1]; [10]) | IC50 (SUM149 [2]; [11]) | IC50 (SUM149 [2]; [10]) | AC50 (786-O [3]; with (+) neutrophil elastase) | AC50 (786-O [3]; [12]) | AC50 (NCI H292 [4]; [13]) | AC50 (NCI H292 [4]; [14]) | AC50 (HT29 [5]; [15]) | AC50 (HT29 [5]; [16]) | IC50 (786-O [6]; [17]) | IC50 (786-O [6]; [12]) | IC50 (NCI H292 [7]; [18]) | IC50 (NCI H292 [7]; [14]) | IC50 (HT29 [8]; [19]) | IC50 (HT29 [8]; [16]) |
| --- | --- | --- | --- | --- | --- | --- | --- | --- | --- | --- | --- | --- | --- | --- | --- | --- |
| CCCNC(=O)Nc1cccc(S(=O)(=O)Nc2cccc([C@@H](CC(=O)O)NC(=O)Nc3ccc(NC(=O)NCCOCCOCCOCCC(=O)N[C@@H](CC(=O)O)C(=O)N4CCC[C@H]4C(=O)N[C@H](C(=O)N=S(C)(=O)Cc4cccc(Nc5ncnc(-c6ccc(F)cc6OC)n5)c4)C(C)C)cc3)c2)c1 (relative stereo) [Compound 1, disodium 1-[(2S)-2-(carboxylatomethyl)-17-{4-[({(1R)-2-carboxylato-1-[3-({3-[(propylcarbamoyl)amino]benzene-1-sulfonyl}amino)phenyl]ethyl}carbamoyl)amino]anilino}-4,17-dioxo-7,10,13-trioxa-3,16-diazaheptadecanan-1-oyl]-L-prolyl-N—[(R*)-[(3-{[4-(4-fluoro-2-methoxyphenyl)-1,3,5-triazin-2-yl]amino}phenyl)methyl](methyl)oxo-lambda^6-sulfanylidene]-L-valinamide] | 100 to 1000 nM | > 1000 nM | 11 to 100 nM | > 100 nM | > 1000 nM | > 1000 nM | 11 to 100 nM | > 1000 nM | > 1000 nM | > 1000 nM | 11 to 100 nM | 11 to 100 nM | 11 to 100 nM | > 100 nM | 11 to 100 nM | > 100 nM |
| CCCNC(=O)Nc1cccc(S(=O)(=O)Nc2cccc([C@@H](CC(=O)O)NC(=O)Nc3ccc(NC(=O)NCCOCCOCCOCCC(=O)N[C@@H](CC(=O)O)C(=O)N4CCC[C@H]4C(=O)N[C@H](C(=O)N=S(C)(=O)Cc4ccnc(Nc5cc(-c6ccc(F)cc6OC)c(F)cn5)c4)C(C)C)cc3)c2)c1 (relative stereo) [Compound 2, disodium 1-[(2S)-2-(carboxylatomethyl)-17-{4-[({(1R)-2-carboxylato-1-[3-({3-[(propylcarbamoyl)amino]benzene-1-sulfonyl}amino)phenyl]ethyl}carbamoyl)amino]anilino}-4,17-dioxo-7,10,13-trioxa-3,16-diazaheptadecanan-1-oyl]-L-prolyl-N—[(S*)-[(2-{[5-fluoro-4-(4-fluoro-2-methoxyphenyl)pyridin-2-yl]amino}pyridin-4-yl)methyl](methyl)oxo-lambda^6-sulfanylidene]-L-valinamide] | 100 to 1000 nM | 100 to 1000 nM | 11 to 100 nM | > 100 nM | 100 to 1000 nM | 100 to 1000 nM | 100 to 1000 nM | > 1000 nM | 100 to 1000 nM | 100 to 1000 nM | 11 to 100 nM | > 100 nM | 11 to 100 nM | > 100 nM | 1.1 to 10 nM | > 100 nM |
| CCCNC(=O)Nc1cccc(S(=O)(=O)Nc2cccc([C@@H](CC(=O)O)NC(=O)Nc3ccc(NC(=O)N(C)CCN(C)CCN(C)CC(=O)N[C@@H](CC(N)=O)C(=O)N4CCC[C@H]4C(=O)N[C@H](C(=O)N=S(C)(=O)Cc4cc5cc(c4)OC(C)CCOc4cc(F)ccc4-c4nc(ncc4F)N5)C(C)C)cc3)c2)c1 (relative stereo) [Compound 6] | ≤ 10 nM | ≤ 10 nM | ≤ 1 nM | 11 to 100 nM | ≤ 10 nM | ≤ 10 nM | ≤ 10 nM | 100 to 1000 nM | ≤ 10 nM | ≤ 10 nM |  |  | ≤ 1 nM | > 100 nM | ≤ 1 nM | > 100 nM |
| CCCNC(=O)Nc1cccc(S(=O)(=O)Nc2cccc([C@@H](CC(=O)O)NC(=O)Nc3ccc(NC(=O)NCCN(C)CCN(C)CCN(C)CC(=O)N[C@@H](CC(N)=O)C(=O)N4CCC[C@H]4C(=O)N[C@H](C(=O)N=[S@@](C)(=O)Cc4cc5cc(c4)OCCCCCNc4cc(ccc4F)-c4nc(ncc4F)N5)C(C)C)cc3)c2)c1 (relative stereo) [Compound 15] | 100 to 1000 nM | 100 to 1000 nM | ≤ 1 nM | 11 to 100 nM | 100 to 1000 nM | 100 to 1000 nM | 11 to 100 nM | 100 to 1000 nM | 100 to 1000 nM | 100 to 1000 nM | ≤ 1 nM | > 100 nM | ≤ 1 nM | 11 to 100 nM | ≤ 1 nM | > 100 nM |
| CCCNC(=O)Nc1cccc(S(=O)(=O)Nc2cccc([C@H](CC(=O)O)NC(=O)Nc3ccc(NC(=O)NCCN(C)CCN(C)CCN(C)CC(=O)N[C@@H](CC(N)=O)C(=O)N4CCC[C@H]4C(=O)N[C@H](C(=O)N=[S@@](C)(=O)Cc4cc5cc(c4)OCCCCCNc4cc(ccc4F)-c4nc(ncc4F)N5)C(C)C)cc3)c2)c1 (relative stereo) [Compound 16] | 11 to 100 nM | > 1000 nM | 1.1 to 10 nM | 11 to 100 nM | 11 to 100 nM | > 1000 nM | 11 to 100 nM | 100 to 1000 nM | ≤ 10 nM | > 1000 nM | 1.1 to 10 nM | > 100 nM | ≤ 1 nM | 11 to 100 nM | ≤ 1 nM | > 100 nM |
| CCCNC(=O)Nc1cccc(S(=O)(=O)Nc2cccc([C@@H](CC(=O)O)NC(=O)Nc3ccc(NC(=O)NCCN(C)CCN(C)CCN(C)CC(=O)N[C@@H](CC(N)=O)C(=O)N4CCC[C@H]4C(=O)N[C@H](C(=O)N=[S@](C)(=O)Cc4cc5cc(c4)OCCCCCNc4cc(ccc4F)-c4nc(ncc4F)N5)C(C)C)cc3)c2)c1 (relative stereo) [Compound 17] | ≤ 10 nM | 100 to 1000 nM | 1.1 to 10 nM | 11 to 100 nM | ≤ 10 nM | 100 to 1000 nM | ≤ 10 nM | 100 to 1000 nM | ≤ 10 nM | > 1000 nM | 1.1 to 10 nM | > 100 nM | ≤ 1 nM | 11 to 100 nM | ≤ 1 nM | 11 to 100 nM |
| CCCNC(=O)Nc1cccc(S(=O)(=O)Nc2cccc([C@@H](CC(=O)O)NC(=O)Nc3ccc(NC(=O)N(C)CCN(C)CCN(C)CC(=O)N[C@@H](CC(N)=O)C(=O)N4CCC[C@H]4C(=O)N[C@H](C(=O)N=[S@@](C)(=O)Cc4ccnc(Nc5cc(-c6ccc(F)cc6OC)c(F)cn5)c4)C(C)C)cc3)c2)c1 [Compound 4, N-{2-[{2-[({4-[({(1R)-2-Carboxy-1-[3-({3-[(propylcarbamoyl)amino]benzene-1-sulfonyl}amino)phenyl]ethyl}carbamoyl)amino]phenyl}carbamoyl)(methyl)amino]ethyl} (methyl)amino]ethyl}-N-methylglycyl-L-asparaginyl-L-prolyl-N—[(S)-[(2-{[5-fluoro-4-(4-fluoro-2-methoxyphenyl)pyridine-2-yl]amino}pyridin-4-yl)methyl](methyl)oxo-lambda^6-sulfanylidene]-L-valinamide] | 100 to 1000 nM | > 1000 nM | 11 to 100 nM | > 100 nM | 11 to 100 nM | > 1000 nM | > 1000 nM | > 1000 nM | 100 to 1000 nM | > 1000 nM | 11 to 100 nM | > 100 nM | 11 to 100 nM | > 100 nM | 11 to 100 nM | > 100 nM |

From patent US20240408222A1, “COMPOUNDS, PHARMACEUTICAL COMPOSITIONS, AND METHODS FOR THE TREATMENT, PREVENTION, OR MANAGEMENT OF HYPERPRO[…]” (VINCERX PHARMA GMBH, priority 2021, published 2024)
